From the supplement of paper PMC10307832

Assays:
Test in all cases: relative viability (nuclei count vs DMSO), 5 days (fraction); higher = more cells survive
Adavosertib + Tozasertib = compound: C=CCn1c(=O)c2cnc(Nc3ccc(N4CCN(C)CC4)cc3)nc2n1-c1cccc(C(C)(C)O)n1 [Adavosertib] + Cc1cc(Nc2cc(N3CCN(C)CC3)nc(Sc3ccc(NC(=O)C4CC4)cc3)n2)n[nH]1 [Tozasertib] (partner 0.1 µM)
Summary of the method: (§1)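 Relative viability is defined as nuclei in treated wells over nuclei in vehicle wells. Duplicate plates were run and medians reported. Lung cancer cell lines in 1536-well plates were dosed by pin tool one day after seeding, with one drug or with a fixed anchor-drug dose plus five library-drug doses (not always all listed) in √10 steps, and nuclei were counted after 5 days.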

Nelarabine + Lapatinib = compound: COc1nc(N)nc2c1ncn2[C@@H]1O[C@H](CO)[C@@H](O)[C@@H]1O [Nelarabine] + CS(=O)(=O)CCNCc1ccc(-c2ccc3ncnc(Nc4ccc(OCc5cccc(F)c5)c(Cl)c4)c3c2)o1 [Lapatinib] (partner 2 µM)
Summary of the method: as §1

Adavosertib + Phenformin = compound: C=CCn1c(=O)c2cnc(Nc3ccc(N4CCN(C)CC4)cc3)nc2n1-c1cccc(C(C)(C)O)n1 [Adavosertib] + N=C(N)NC(=N)NCCc1ccccc1 [Phenformin] (partner 250 µM)
Summary of the method: as §1

Nelarabine + Bortezomib = compound: COc1nc(N)nc2c1ncn2[C@@H]1O[C@H](CO)[C@@H](O)[C@@H]1O [Nelarabine] + CC(C)C[C@H](NC(=O)[C@H](Cc1ccccc1)NC(=O)c1cnccn1)B(O)O [Bortezomib] (partner 0.002 µM)
Summary of the method: as §1

Cell Line	relative viability (Adavosertib + Tozasertib; first compound 0.01 µM)	relative viability (Adavosertib + Tozasertib; first compound 0.03162 µM)	relative viability (Adavosertib + Tozasertib; first compound 0.1 µM)	relative viability (Adavosertib + Tozasertib; first compound 0.3162 µM)	relative viability (Nelarabine + Lapatinib; first compound 0.01 µM)	relative viability (Nelarabine + Lapatinib; first compound 0.03162 µM)	relative viability (Nelarabine + Lapatinib; first compound 0.1 µM)	relative viability (Nelarabine + Lapatinib; first compound 0.3162 µM)	relative viability (Nelarabine + Lapatinib; first compound 1 µM)	relative viability (Adavosertib + Phenformin; first compound 0.01 µM)	relative viability (Adavosertib + Phenformin; first compound 0.03162 µM)	relative viability (Adavosertib + Phenformin; first compound 0.1 µM)	relative viability (Adavosertib + Phenformin; first compound 0.3162 µM)	relative viability (Nelarabine + Bortezomib; first compound 0.01 µM)	relative viability (Nelarabine + Bortezomib; first compound 0.03162 µM)	relative viability (Nelarabine + Bortezomib; first compound 0.1 µM)	relative viability (Nelarabine + Bortezomib; first compound 0.3162 µM)	relative viability (Nelarabine + Bortezomib; first compound 1 µM)
NCI-H520	0.406	0.437	0.347	0.411	0.991	0.947	1.31	0.889	0.887	0.667	0.547	0.657	0.757	0.67	0.552	0.696	0.542	0.529
HCC-44	1.02	0.951	1.24	1.15	1.08	1.07	1.14	1.03	1.02	0.255	0.237	0.192	0.181	1.05	0.845	0.866	0.924	0.924
NCI-H2087	0.303	0.258	0.273	0.234	1	1.02	1.09	1.07	1.32	0.456	0.442	0.525	0.461	1.08	0.821	1.03	1.03	0.793
CAL-12T	0.394	0.351	0.321	0.18	0.699	0.743	0.611	0.685	0.688	0.576	0.545	0.573	0.336	1.11	0.973	1.31	0.958	0.959
NCI-H1355	0.549	0.553	0.522	0.615	1.14	0.7	0.929	0.993	1.07	0.474	0.455	0.426	0.403	1.39	1.05	1.25	1.32	1.37
HARA	0.125	0.128	0.111	0.0667	0.971	0.666	0.719	0.808	0.767	0.513	0.476	0.548	0.361	1.19	1.08	1.16	1.21	1.02
NCI-H2085	0.738	0.788	0.956	0.799	0.889	0.804	0.74	0.754	0.835	0.668	0.757	0.784	0.761	1.07	0.976	1.02	1.05	0.889
IA-LM	–	–	–	–	1.01	0.74	0.829	0.9	0.932	–	–	–	–	0.989	1.04	0.986	0.927	0.748
LCLC-103H	0.5	0.501	0.572	0.451	–	–	–	–	–	0.347	0.372	0.319	0.3	1.36	1.05	1.01	1.13	1.1
NCI-H2405	0.807	0.83	0.835	0.877	1.14	1.13	0.904	1.06	1.04	0.458	0.414	0.405	0.396	1.06	0.943	0.908	1.03	0.954
NCI-H1666	0.642	0.568	0.678	0.694	0.711	0.604	0.57	0.675	0.646	0.549	0.562	0.636	0.594	1.02	1.02	0.747	0.89	0.789
Calu-6	–	–	–	–	1.29	1.04	1.08	1.18	1.14	–	–	–	–	1.1	–	1.05	0.947	1.08
BEN	0.598	0.474	0.494	0.629	0.905	0.69	0.941	0.684	0.778	0.277	0.261	0.299	0.25	0.915	0.652	0.887	1.19	0.969
201T	0.91	0.999	1.01	0.979	1.05	1.02	0.999	1.09	1.1	0.453	0.441	0.467	0.453	1.11	1.02	1.12	1.15	1.08
NCI-H322M	0.481	0.453	0.436	0.342	0.653	0.581	0.529	0.604	0.602	0.737	0.759	0.656	0.342	1.29	1.2	1.18	1.28	1.46
NCI-H1792	–	–	–	–	0.913	–	1.45	1.03	0.967	0.27	0.217	–	0.259	1.28	–	1.05	1.17	0.85
NCI-H358	0.104	0.0953	0.102	0.0852	0.518	0.436	0.421	0.405	0.431	0.288	0.295	0.322	0.24	–	–	–	–	–
NCI-H2347	0.476	0.674	0.718	0.511	0.977	0.904	0.94	0.954	0.992	0.306	0.496	0.5	0.411	1.27	–	0.862	0.985	1.3
NCI-H1793	0.352	0.386	0.4	0.253	0.827	0.945	0.83	0.933	0.727	0.356	0.385	0.414	0.273	–	–	–	–	–
LU99A	0.284	0.273	0.263	0.273	1.15	1.04	1.19	1.12	1.1	0.963	0.808	0.982	0.826	1.33	1.09	1.15	1.23	1.33
NCI-H661	0.353	0.36	0.339	0.349	0.497	0.644	0.556	0.502	0.509	0.28	0.264	0.276	0.252	0.986	0.932	0.866	0.912	0.866
SW 900	–	0.533	0.62	0.538	–	–	–	–	–	–	0.75	0.564	0.387	–	–	–	–	–
HCC-827	0.402	0.415	0.46	0.437	0.196	0.205	0.169	0.179	0.194	0.391	0.434	0.46	0.387	1.09	0.956	1.02	0.914	0.783

Cell Line	relative viability (Adavosertib + Tozasertib; first compound 0.01 µM)	relative viability (Adavosertib + Tozasertib; first compound 0.03162 µM)	relative viability (Adavosertib + Tozasertib; first compound 0.1 µM)	relative viability (Adavosertib + Tozasertib; first compound 0.3162 µM)	relative viability (Nelarabine + Lapatinib; first compound 0.01 µM)	relative viability (Nelarabine + Lapatinib; first compound 0.03162 µM)	relative viability (Nelarabine + Lapatinib; first compound 0.1 µM)	relative viability (Nelarabine + Lapatinib; first compound 0.3162 µM)	relative viability (Nelarabine + Lapatinib; first compound 1 µM)	relative viability (Adavosertib + Phenformin; first compound 0.01 µM)	relative viability (Adavosertib + Phenformin; first compound 0.03162 µM)	relative viability (Adavosertib + Phenformin; first compound 0.1 µM)	relative viability (Adavosertib + Phenformin; first compound 0.3162 µM)	relative viability (Nelarabine + Bortezomib; first compound 0.01 µM)	relative viability (Nelarabine + Bortezomib; first compound 0.03162 µM)	relative viability (Nelarabine + Bortezomib; first compound 0.1 µM)	relative viability (Nelarabine + Bortezomib; first compound 0.3162 µM)	relative viability (Nelarabine + Bortezomib; first compound 1 µM)
A-427	0.175	0.186	0.219	0.164	1.15	0.973	1.14	1.1	1.11	0.337	0.289	0.297	0.255	1.01	0.846	1.01	0.895	0.961
EBC-1	–	–	–	–	0.177	0.205	0.188	0.215	0.197	–	–	–	–	0.559	0.525	0.548	0.55	0.549
NCI-H2009	0.787	0.749	1.05	0.749	1.04	1.03	0.869	1.07	1.03	0.486	0.551	0.496	0.427	1.24	1.09	0.952	1.03	1.06
EPLC-272H	0.281	0.315	0.197	0.277	1.12	0.798	0.976	1.02	0.86	0.314	0.306	0.353	0.245	1.04	0.925	0.823	0.887	0.981
LC-2-ad	0.478	0.419	0.445	0.442	1.28	1.03	0.991	1.06	1.08	0.565	0.635	0.621	0.597	1.08	1.03	0.972	1.26	1.07
HCC-366	0.137	0.132	0.145	0.169	1.46	0.952	1.23	1.2	1.17	0.622	0.678	0.626	0.674	1.95	0.968	1.33	1.23	1.13
RERF-LC-KJ	0.555	0.627	0.577	0.668	0.912	0.99	1.01	0.88	0.876	0.363	0.381	0.4	0.439	1.03	1.39	1.24	1.29	1.33
NCI-H1395	0.757	0.822	0.853	0.733	0.959	1.1	1.23	0.971	1.5	0.435	0.429	0.421	0.471	–	–	–	–	–
NCI-H2342	0.548	0.507	0.55	0.525	–	–	–	–	–	0.569	0.587	0.571	0.572	–	–	–	–	–
NCI-H1648	0.545	0.613	0.386	0.545	–	–	–	–	–	–	–	–	–	–	–	–	–	–
ChaGo-K-1	0.228	0.243	0.229	0.228	–	–	–	–	–	0.469	0.506	0.484	0.457	0.997	0.85	1.26	0.93	0.925
LK-2	0.172	0.2	0.171	0.19	1.23	–	1.03	1.02	1.05	0.75	0.435	0.364	0.397	–	–	–	–	–
NCI-H1563	–	–	–	–	0.944	1.02	0.985	0.998	1.03	0.692	0.603	0.667	0.642	0.943	0.903	0.766	0.84	0.908
NCI-H1623	0.4	0.447	0.351	0.447	–	–	–	–	–	0.553	0.629	0.563	0.652	–	–	–	–	–
NCI-H441	0.688	0.685	0.801	0.636	–	–	–	–	–	0.876	0.78	1.09	0.765	0.357	0.71	0.613	0.519	0.567
A549	–	–	–	–	1.13	1.09	0.926	0.896	0.921	0.218	0.229	0.14	0.173	–	–	–	–	–
NCI-H522	0.522	0.58	0.508	0.581	–	–	–	–	–	0.679	0.57	0.691	0.676	–	–	–	–	–
NCI-H2170	0.675	0.683	0.688	0.735	0.284	0.232	0.262	0.293	0.28	0.444	0.404	0.407	0.441	–	–	–	–	–
NCI-H1703	–	–	–	–	1.65	1.33	1.42	1.05	1.11	–	–	–	–	0.364	0.162	0.405	0.303	0.448
NCI-H1299	–	–	–	–	1	0.999	1.02	0.98	1	–	–	–	–	1.08	1.09	1.05	1.06	1.01
SK-MES-1	0.898	0.929	0.92	0.285	0.432	0.544	0.456	0.563	0.555	0.66	0.704	0.635	0.208	–	–	–	–	–
NCI-H1944	0.227	0.241	0.23	0.269	0.895	0.782	0.841	0.799	0.845	0.23	0.202	0.19	0.206	–	–	–	–	–
